Assay results reported in patent US5223539A, “N,N-Di-alkyl(phenoxy)benzamide derivatives” (G. D. Searle & Co., priority 1991, dated 1993).

Legend:
[1] = molecular target: Human Platelet Membrane Receptors (PAF receptor) (Homo sapiens, UniProt P25105); conditions: for inhibition at 50 µM: read-out: Percent Inhibition of 3H-PAF binding at 50 μM
Experimental: INHIBITION OF ^3 H-PAF BINDING TO HUMAN PLATELET MEMBRANE RECEPTORS
Ten units of in-dated human packed platelets, each containing 45-65 ml platelet rich-plasma, were purchased from a commercial blood bank. Disposable plasticware was used throughout for receptor preparation. The units were pooled and a 1 ml aliquot was removed for determination of platelet concentration, using a Coulter Counter. The remaining platelet rich plasma was dispensed into 50 ml conical tubes and centrifuged at room temperature for 15 minutes at 3000 RPM (2300×g). Plasma was decanted and the platelets were resuspended in 35 ml of buffer (10 mM Trizma 7.0, 2 mM EDTA (dipotassium salt), and 150 mM KCl) and transferred to fresh tubes, which were centrifuged again as above. The platelets were washed 3 times, avoiding contaminating erythrocytes at the bottom of the pellets. Pellets were consolidated at each step, and by the last wash with EDTA/KCl buffer, most of the erythrocytes were in 1 tube. The pellets were resuspended in buffer containing 10 mM Trizma 7.0 with 10 mM CaCl2. Following centrifugation, the buffer was decanted and the pellets were resuspended in the CaCl2 buffer, avoiding erythrocyte contamination by recovering less than 100% of the platelet pellets. The resuspended platelets were dispensed in 8-10 ml aliquots into Corex tubes and disrupted by three cycles of freezing (dry ice/ethanol) and thawing (24° C.). The tubes were centrifuged at 40,000 × g for 20 minutes at 4° C. Supernatants were decanted and each pellet was resuspended in 5-7 ml 10 mM Trizma 7.0. All resuspended pellets were pooled and aliquots of about 1200 ml were dispensed into 1.5 ml microfuge tubes and frozen at -70° C. Protein content was determined by a fluorescamine protein assay.
Assay Methods: Receptor Characterization--Each receptor preparation was evaluated to determine the number of receptor populations, the number of PAF receptor equivalents/mg protein and the dissociation constant (KD) for PAF binding This required 2-3 experiments in which the protein concentration was held constant and the ^3 H-PAF ligand concentration was varied from approximately 0.10-2.5 nM and the data was analyzed by Scatchard methodology. Total incubation volume was 250 ml for these procedures and incubations were conducted at 24° C. for 30 minutes. For further experimentation, total incubation volumes are 500 ml. Protein and ligand concentrations were adjusted to give 0.075 nM receptor equivalents in the presence of 0.75 nM ^3 H-PAF. Each receptor preparation was then used to determine the dose - response displacement relationship of unlabeled PAF and the PAF antagonist, triazolam.
Assay Methods: Routine Assay of Compounds--The compounds were weighed precisely and solubilized in quantities of DMSO such that a 5 ml aliquot in the incubate would deliver the desired compound concentration. Compounds tested for the first time in this assay were evaluated at a concentration of 50 mM in the incubation medium. […] Triazolam was always included in each screening assay as a compound inhibition control. […] Nonspecific binding control solution was made by drying to completion about 26.2 ml unlabeled PAF under a stream of argon. PAF was resolubilized in 1000 ml DMSO. When delivered in a 5 ml aliquot, the final concentration of 1 mM PAF in the incubate exceeded by 1000-fold the concentration of ^3 H-PAF.
All buffers containing proteins were made at room temperature on the day of assay. Assay buffer was prepared by adding 125 mg human albumin to 25 ml of stock buffer (10 mM Trizma 7.4 with 20 mM CaCl2). Rinse buffer was made by adding 20 grams bovine serum albumin to 1000 ml stock buffer. About 80 ml of rinse buffer was decanted into a small pyrex dish and used to soak 65 Whatman GF/C 2.5 cm glass filters. The remaining rinse buffer was poured into a repipet and placed into an ice bath along with the filters.

[2] = test system: rabbit platelets; assay: PAF-induced platelet aggregation; format: cell-based; conditions: Oryctolagus cuniculus, washed rabbit platelets, antagonist 60 sec before PAF, tracing height 60 sec after PAF
Experimental: (§1) Washed, [^3 H]serotonin-labeled rabbit platelets were prepared as previously described in COX, C. P., J. LINDEN and S. I. SAID: VIP elevates platelet cyclic AMP (cAMP) levels and inhibits in vitro platelet activation induced by platelet- activating factor (PAF). Peptides 5:25-28, 1984, and maintained in an atmosphere of 5% CO2 at 37° C. until used in the bioassay. Aliquots of platelets (2.5×10^8 /ml) were incubated with either an antagonist of PAF or the appropriate vehicle for 60 sec prior to the addition of PAF (0.2 nM to 0.2 mM). Aggregation was continuously monitored on a strip-chart recorder and recorded as the height of the tracing at 60 sec after the addition of PAF. Secretion of [^3 H]serotonin was measured in a sample of the platelet suspension removed at 60 sec after the addition of PAF. The percent inhibition of aggregation and secretion was calculated by comparing antagonist-treated platelets with the appropriate vehicle-treated control platelets. Each combination of antagonist and PAF was repeated 12-15 times, using several different platelet preparations. IC50 values were determined by inspection of the dose-response curves.

[3] = test system: rabbit platelets; assay: PAF-induced platelet secretion ([3H]serotonin); format: cell-based; conditions: Oryctolagus cuniculus, washed [3H]serotonin-labeled rabbit platelets, antagonist 60 sec before PAF, sampled 60 sec after PAF
Experimental: as §1

Sequence of Human Platelet Membrane Receptors (PAF receptor) (P25105 whole entry): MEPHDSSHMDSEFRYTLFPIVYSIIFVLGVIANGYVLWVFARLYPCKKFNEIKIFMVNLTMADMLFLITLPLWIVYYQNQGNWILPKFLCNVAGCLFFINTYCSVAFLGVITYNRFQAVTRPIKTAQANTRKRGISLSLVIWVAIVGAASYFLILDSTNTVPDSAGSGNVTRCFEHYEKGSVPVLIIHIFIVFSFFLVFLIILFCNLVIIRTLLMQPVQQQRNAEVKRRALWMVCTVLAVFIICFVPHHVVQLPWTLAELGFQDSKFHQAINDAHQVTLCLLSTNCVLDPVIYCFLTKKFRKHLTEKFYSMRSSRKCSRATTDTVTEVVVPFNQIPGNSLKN

Row | SMILES | IC50 [1] | IC50 ([2]; 1 min) | IC50 [3] | inhibition at 50 µM [1] | IC50 [2] | IC50 ([3]; 1 min) | inhibition of 3H-PAF binding by triazolam control at standard concentration ([1]; standard concentration of 50 mM (so in the source), 0.75 nM 3H-PAF)
1 | COc1cc(Oc2ccc(C(=O)N(C(C)C)C3CCCCC3)cc2)cc(OC)c1OC [Example 1, N-cyclohexyl-N-(1-methylethyl)-4-(3,4,5-trimethoxyphenoxy)benzamide] | 133 nM | 10 to 100 nM | 8.9 nM |  |  |  | 
2 | COc1ccc(Oc2ccc(C(=O)N(C(C)C)C3CCCCC3)cc2)cc1 [Example 2, N-cyclohexyl-4-(4-methoxyphenoxy)-N-(1-methylethyl)benzamide] | 22100 nM | 1000 to 10000 nM | 1120 nM |  |  |  | 
3 | COc1cccc(Oc2ccc(C(=O)N(C(C)C)C3CCCCC3)cc2)c1 [Example 3, N-cyclohexyl-4-(3-methoxyphenoxy)-N-(1-methylethyl)benzamide] | 10500 nM | 1000 to 10000 nM | 750 nM |  |  |  | 
4 | COc1cc(Oc2ccc(C(=O)N(C3CCCCC3)C3CCCC3)cc2)cc(OC)c1OC [Example 4, N-cyclohexyl-N-cyclopentyl-4-(3,4,5-trimethoxyphenoxy)benzamide] | 508 nM | 1000 to 10000 nM | 9.36 nM |  |  |  | 
5 | COc1ccc(Oc2ccc(C(=O)N(C3CCCCC3)C3CCCC3)cc2)cc1OC [Example 5, N-cyclohexyl-N-cyclopentyl-4-(3,4-dimethoxyphenoxy)benzamide] | 1500 nM | 1000 to 10000 nM | 4010 nM |  |  |  | 
6 | COc1ccc(Oc2ccc(C(=O)N(C(C)C)C3CCCCC3)cc2)cc1OC [Example 6, N-cyclohexyl-4-(3,4-dimethoxyphenoxy)-N-(1-methylethyl)benzamide] | 2010 nM | 100 to 1000 nM | 85.9 nM |  |  |  | 
7 | COc1ccc(Oc2ccc(C(=O)N(C3CCCC3)C3CCCC3)cc2)cc1OC [Example 7, N,N-dicyclopentyl-4-(3,4-dimethoxyphenoxy)benzamide] | 914 nM | 1000 to 10000 nM | 422 nM |  |  |  | 
8 | COc1ccc(C(O)c2ccc(C(=O)N(C(C)C)C3CCCCC3)cc2)cc1OC (stereo not drawn) [Example 8, N-cyclohexyl-4-[(3,4-dimethoxyphenyl)hydroxymethyl]-N-(1-methylethyl)benzamide] |  | 10000 to 100000 nM | 2570 nM | 44% |  |  | 
9 | COc1ccc(C(O)c2ccc(C(=O)N(C3CCCCC3)C3CCCC3)cc2)cc1OC (stereo not drawn) [Example 9, N-cyclohexyl-N-cyclopentyl-4-[(3,4-dimethoxyphenyl)hydroxymethyl]benzamide] |  | 1000 to 10000 nM | 1490 nM | 61.9% |  |  | 
10 | COc1ccc(C(O)c2ccc(C(=O)N(C3CCCC3)C3CCCC3)cc2)cc1OC (stereo not drawn) [Example 10, N,N-dicyclopentyl-4-[(3,4-dimethoxyphenyl) hydroxymethyl]benzamide] |  |  |  | 47% | > 10000 nM | 1000 to 10000 nM | 
11 | COc1ccc(Cc2ccc(C(=O)N(C3CCCC3)C3CCCC3)cc2)cc1OC [Example 11, N,N-dicyclopentyl-4-[(3,4-dimethoxyphenyl)methyl]benzamide] | 1480 nM | 1000 to 10000 nM | 114 nM |  |  |  | 
12 | COc1cc(OC)cc(Oc2ccc(C(=O)N(C(C)C)C3CCCCC3)cc2)c1 [Example 12, N-cyclohexyl-4-(3,5-dimethoxyphenoxy)-N-(1-methylethyl)benzamide] | 2710 nM | 1000 to 10000 nM | 142 nM |  |  |  | 
13 | COc1cc(Oc2ccc(C(=O)N(C3CCCCC3)C3CCCC3)cc2C)cc(OC)c1OC [Example 13, N-cyclohexyl-N-cyclopentyl-3-methyl-4-(3,4,5-trimethoxyphenoxy)benzamide] | 600 nM |  | 89.4 nM |  | < 1000 nM |  | 
14 | COc1cc(C(O)c2ccc(C(=O)N(C(C)C)C3CCCCC3)cc2)cc(OC)c1OC (stereo not drawn) [Example 14, N-cyclohexyl-4-[hydroxy(3,4,5-trimethoxyphenyl)methyl]-N-(1-methylethyl)benzamide] |  | 100 to 1000 nM | 1810 nM | 49.2% |  |  | 
15 | COc1cc(Cc2ccc(C(=O)N(C(C)C)C3CCCCC3)cc2)cc(OC)c1OC [Example 15, N-cyclohexyl-N-(1-methylethyl)-4-[(3,4,5-trimethoxyphenyl)methyl]benzamide] | 425 nM | 100 to 1000 nM | 26.6 nM |  |  |  | 
16 | COc1cc(C(=O)c2ccc(C(=O)N(C(C)C)C3CCCCC3)cc2)cc(OC)c1OC [Example 16, N-cyclohexyl-N-(1-methylethyl)-4-(3,4,5-trimethoxybenzoyl)benzamide] |  | 100 to 1000 nM | 103 nM |  |  |  | 
17 | COc1cc(OC)c(OC)cc1Cc1ccc(C(=O)N(C2CCCCC2)C2CCCC2)cc1 [Example 17, N-cyclohexyl-N-cyclopentyl-4-[(2,4,5-trimethoxyphenyl)methyl]benzamide] | 3710 nM | 1000 to 10000 nM | 632 nM |  |  |  | 
18 | CC(C)N(C(=O)c1ccc(Oc2ccc3c(c2)OCO3)cc1)C1CCCCC1 [Example 18, N-cyclohexyl-4-(3,4-methylenedioxyphenoxy)-N-(1-methylethyl)benzamide] | 8160 nM | 1000 to 10000 nM | 1990 nM |  |  |  | 
19 | COc1cc(C(=O)N(C(C)C)C2CCCCC2)ccc1Oc1cc(OC)c(OC)c(OC)c1 [Example 19, N-cyclohexyl-3-methoxy-N-(1-methylethyl)-4-(3,4,5-trimethoxyphenoxy)benzamide] | 995 nM |  |  |  |  |  | 
20 | COc1ccc(OCc2ccc(C(=O)N(C(C)C)C3CCCCC3)cc2OC)c(OC)c1 [Example 20, N-cyclohexyl-4-[(2,4-dimethoxyphenoxy)methyl]-3-methoxy-N-(1-methylethyl)benzamide] |  |  |  | 41% |  |  | 
21 | COc1cccc(OCc2ccc(C(=O)N(C(C)C)C3CCCCC3)cc2OC)c1 [Example 21, N-cyclohexyl-3-methoxy-4-[(3-methoxyphenoxy)methyl]-N-(1-methylethyl)benzamide] | 11200 nM |  |  |  |  |  | 
22 | COc1cccc(OCc2ccc(C(=O)N(C)C3CCCCC3)cc2)c1 [Example 22, N-cyclohexyl-4-[(3-methoxyphenoxy)methyl]-N-methylbenzamide] | 53200 nM | 10000 to 100000 nM | > 10000 nM |  |  |  | 
23 | COc1cc(OCc2ccc(C(=O)N(C)C3CCCCC3)cc2)cc(OC)c1OC [Example 23, N-cyclohexyl-N-methyl-4-[(3,4,5-trimethoxyphenoxy)methyl]benzamide] | > 50000 nM | 10000 to 100000 nM |  |  |  | 10000 to 100000 nM | 
24 | Cc1nnc2n1-c1ccc(Cl)cc1C(c1ccccc1Cl)=NC2 [Triazolam, triazolam, reference compound] |  |  |  |  |  |  | approximately 50%
